Source: ChEMBL document CHEMBL1142763, “Dibenzodioxocinones--a new class of CETP inhibitors” (Bioorg Med Chem Lett, 2005)

Key:
[1] = biological target: T1, Cholesteryl ester transfer protein (Homo sapiens, UniProt P11597); test: Inhibitory concentration against Cholesterol ester transfer protein (CETP) in CETP fluorescence assay
T1 sequence (P11597 whole entry): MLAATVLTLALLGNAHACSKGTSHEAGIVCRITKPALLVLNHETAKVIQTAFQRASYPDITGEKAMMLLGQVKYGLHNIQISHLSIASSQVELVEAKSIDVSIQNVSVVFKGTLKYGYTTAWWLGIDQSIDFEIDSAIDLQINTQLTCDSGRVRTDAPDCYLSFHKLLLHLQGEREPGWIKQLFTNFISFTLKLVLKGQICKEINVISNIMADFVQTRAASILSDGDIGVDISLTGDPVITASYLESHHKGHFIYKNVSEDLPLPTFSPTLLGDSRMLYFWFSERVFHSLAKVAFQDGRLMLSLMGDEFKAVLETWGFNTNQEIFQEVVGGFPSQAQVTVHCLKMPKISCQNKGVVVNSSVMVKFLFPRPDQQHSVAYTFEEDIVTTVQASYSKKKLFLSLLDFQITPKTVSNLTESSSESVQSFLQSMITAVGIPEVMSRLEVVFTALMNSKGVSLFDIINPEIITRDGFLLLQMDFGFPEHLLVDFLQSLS

[2] = (§1) Half life period […] determined in rat plasma; format: ADME, organism-based
[3] = as §1; format: ADME, cell-free

SMILES	IC50 [1]	half-life [2]	half-life [3]
COc1c([C@@H](O)CC(C)C)ccc2c1C(=O)Oc1cc(C)cc(OC(=O)N3CC4CCC4C3)c1O2 (some centres not stated)	400 nM		
COc1c([C@@H](O)CC(C)C)ccc2c1C(=O)Oc1cc(C)cc(OS(=O)(=O)C(F)(F)F)c1O2	10000 nM		
COc1c([C@@H](O)CC(C)C)ccc2c1C(=O)Oc1cc(C)cc(OCC3CCCC3)c1O2	1500 nM		
COc1c([C@@H](O)CC(C)C)ccc2c1C(=O)Oc1cc(C)cc(OC(=O)N3CCCC3)c1O2	800 nM	174 min	
COc1c([C@@H](O)CC(C)C)ccc2c1C(=O)Oc1cc(C)cc(O)c1O2	> 20000 nM		
COc1c([C@@H](O)CC(C)C)ccc2c1C(=O)Oc1cc(C)cc(OC(=O)C3CC4C=CC3C4)c1O2 (some centres not stated)	200 nM		< 6 min
COc1c([C@@H](O)CC(C)C)ccc2c1C(=O)Oc1cc(C)cc(OCc3ccccc3)c1O2	13000 nM		
COc1c([C@@H](O)CC(C)C)ccc2c1C(=O)Oc1cc(C)cc(OC(=O)C3(C)C4CCC3CC4)c1O2 (some centres not stated)	200 nM		252 min
CCCCCS(=O)(=O)Oc1cc(C)cc2c1Oc1ccc([C@@H](O)CC(C)C)c(OC)c1C(=O)O2	4000 nM		
COc1c([C@@H](O)CC(C)C)ccc2c1C(=O)Oc1cc(C)cc(OC(=O)C3CCCC3)c1O2	600 nM		
COc1c([C@@H](O)CC(C)C)ccc2c1C(=O)Oc1cc(C)cc(OC(=O)C(C)(C)C)c1O2	800 nM	< 6 min	
COc1c([C@@H](O)CC(C)C)ccc2c1C(=O)Oc1cc(C)cc(OC(=O)[N+]34CCC(CC3)C4)c1O2	200 nM	234 min	
COc1c([C@@H](O)CC(C)(C)C)ccc2c1C(=O)Oc1c(Cl)c(C)c(C)c(OC(=O)C3(C)C4CCC3CC4)c1O2 (some centres not stated)	30 nM		
COc1c([C@@H](O)CC(C)(C)C)ccc2c1C(=O)Oc1c(Cl)c(C)c(Br)c(OC(=O)C3(C)C4CCC3CC4)c1O2 (some centres not stated)	32 nM		
COc1c([C@@H](O)CC(C)C)ccc2c1C(=O)Oc1c(Cl)c(C)c(C)c(OC(=O)C3(C)C4CCC3CC4)c1O2 (some centres not stated)	30 nM		> 180 min
COc1c([C@@H](O)CC(C)C)ccc2c1C(=O)Oc1cc(C)cc(OS(=O)(=O)c3c(F)cc(F)cc3F)c1O2	6000 nM		
COc1c([C@@H](O)CC(C)C)ccc2c1C(=O)Oc1c(Cl)c(C)c(Br)c(OC(=O)C3(C)C4CCC3CC4)c1O2 (some centres not stated)	60 nM		> 180 min
COc1c([C@@H](O)CC(C)C)ccc2c1C(=O)Oc1cc(C)cc(OC(=O)N(C(C)C)C(C)C)c1O2	700 nM	> 300 min	
CCN(CC)C(=O)Oc1cc(C)cc2c1Oc1ccc([C@@H](O)CC(C)C)c(OC)c1C(=O)O2	3000 nM		
COc1c([C@@H](O)CC(C)C)ccc2c1C(=O)Oc1cc(C)cc(OS(=O)(=O)C(C)C)c1O2	700 nM		
CCc1c(C)c(Cl)c2c(c1OC(=O)C1(C)C3CCC1CC3)Oc1ccc([C@@H](O)CC(C)(C)C)c(OC)c1C(=O)O2 (some centres not stated)	15 nM		
COc1c([C@@H](O)CC(C)C)ccc2c1C(=O)Oc1cc(C)cc(OC(=O)C3(C)CC4C=CC3C4)c1O2 (some centres not stated)	200 nM		38.4 min
COc1c(C(O)C(C)C)ccc2c1C(=O)Oc1cc(C)cc(OCCC(C)C)c1O2 (racemic)	4000 nM		
COc1c(C(O)CC2CCCCC2)ccc2c1C(=O)Oc1cc(C)cc(OCCC(C)C)c1O2 (racemic)	> 20000 nM		
COc1c(C(O)CC2CC2)ccc2c1C(=O)Oc1cc(C)cc(OCCC(C)C)c1O2 (racemic)	10000 nM		
COc1c(C(O)CCC(C)C)ccc2c1C(=O)Oc1cc(C)cc(OCCC(C)C)c1O2 (racemic)	> 20000 nM		
COc1c(C(O)CC(C)(C)C)ccc2c1C(=O)Oc1cc(C)cc(OCCC(C)C)c1O2 (racemic)	1500 nM		
COc1c(C(O)CC(C)C)ccc2c1C(=O)Oc1cc(C)cc(OCCC(C)C)c1O2 (racemic)	2000 nM		
